Measured values taken from patent US20140023647A1, “METHOD FOR TREATING SOLID TUMORS” (BELLICUM PHARMACEUTICALS, INC., priority 2010, published 2014).
Read-outs that look alike come from different tables or passages of the source.

What was measured:
NFkappaB = NFkappaB reporter assay, iCD40 constructs in Jurkat T cells with titrated AP20187; format: cell-based, human
Description: Reporters assays were conducted in human Jurkat-TAg (T cells) or 293 (kidney embryonic epithelial) cells or murine RAW264.7 (macrophage) cells. Jurkat-TAg cells (107) in log-phase growth were electroporated ([…], 250 V) with […] expression plasmid and […] of reporter plasmid NF-kB-SEAP or IFNb-TA-SEAP (see above). 293 or RAW264.7 cells (˜2×10^5 cells per 35-mm dish) in log phase were transfected with […] of FuGENE-6 in growth media. After 24 hr, transformed cells were stimulated with CID. After an additional 20 h, supernatants were assayed for SEAP activity as discussed previously (Spencer, D. M., et al., Science 262, 1019-1024 (1993)).
An inducible CD40 receptor based on chemical-induced dimerization (CID) and patterned after endogenous CD40 activation was produced to specifically target DCs (FIG. 1A). The recombinant CD40 receptor, termed iCD40, was engineered by rt-PCR amplifying the 228 bp CD40 cytoplasmic signaling domain from purified murine bone marrow-derived DCs (>95% CD11c+) and sub-cloning the resulting DNA fragment either downstream (i.e., M-FvFvlsCD40-E) or upstream (M-CD40-FvFvls-E) of tandem copies of the dimerizing drug binding domain, FKBP12(V36) (FIG. 1B). […]

FKBP12(V36) = target: T1, FKBP12(V36) (Homo sapiens, UniProt P62942, F37V); test: AP1903 needed in vitro for effective signaling of cells; format: cell-based
T1 construct: expressed in transfected cells; host or cells: cells transduced with Ad5f35-ihCD40 (human monocyte-derived dendritic cells); inferred, the sentence names no cells
Description: The fixed dose of AP1903 for Injection used in this study is 0.4 mg/kg intravenously infused over 2 hours. The amount of AP1903 needed in vitro for effective signaling of cells is 10-100 nM (1600 Da MW). This equates to 16-160 μg/L or ˜0.016-1.6 mg/kg (1.6-160 μg/kg). Doses up to 1 mg/kg were well-tolerated in the Phase I study of AP1903 described above. Therefore, 0.4 mg/kg may be a safe and effective dose of AP1903 for this Phase I study in combination with BPX-101.

[1] = cited from earlier work
IL-6 = target: T2, IL-6 (Homo sapiens, UniProt P05231); details: cited from earlier work
T2 construct: host or cells: patients' endogenous IL-6

[2] = patients with advanced cancer, Clarke et al.

T2 sequence (P05231 30-212): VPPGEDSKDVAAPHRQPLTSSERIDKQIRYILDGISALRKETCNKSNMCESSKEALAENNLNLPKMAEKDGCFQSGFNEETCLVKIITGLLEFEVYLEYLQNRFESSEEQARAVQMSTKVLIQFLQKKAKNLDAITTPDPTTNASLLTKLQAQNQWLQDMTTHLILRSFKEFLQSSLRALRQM
T1 sequence (P62942 2-108 F37V): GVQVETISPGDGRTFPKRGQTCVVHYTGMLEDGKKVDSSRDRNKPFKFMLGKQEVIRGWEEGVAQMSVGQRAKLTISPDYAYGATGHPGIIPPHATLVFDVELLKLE

In the case of `CC[C@H](C(=O)N1CCCC[C@H]1C(=O)O[C@H](CCc1ccc(OC)c(OC)c1)c1cccc(OCC(=O)NCC(CNC(=O)COc2cccc([C@@H](CCc3ccc(OC)c(OC)c3)OC(=O)[C@@H]3CCCCN3C(=O)[C@@H](CC)c3cc(OC)c(OC)c(OC)c3)c2)CN(C)C)c1)c1cc(OC)c(OC)c(OC)c1` [AP20187], the “high drug dose suppression” value (NFkappaB; iCD40-transfected Jurkat T cells) is reported as “over 100 nM” and the “NF B transcriptional activity” value (NFkappaB; increasing AP20187, iCD40 constructs vs control vector M-FvFvls-E) is reported as “significant upregulation”.

With `CC[C@H](C(=O)N1CCCC[C@H]1C(=O)O[C@H](CCc1ccc(OC)c(OC)c1)c1cccc(OCC(=O)NCCNC(=O)COc2cccc([C@@H](CCc3ccc(OC)c(OC)c3)OC(=O)[C@@H]3CCCCN3C(=O)[C@@H](CC)c3cc(OC)c(OC)c(OC)c3)c2)c1)c1cc(OC)c(OC)c(OC)c1` (relative stereo) [AP1903, 2-Piperidinecarboxylic acid, 1-[(2S)-1-oxo-2-(3,4,5-trimethoxyphenyl)butyl]-, 1,2-ethanediylbis[imino(2-oxo-2,1-ethanediyl)oxy-3,1-phenylene[(1R)-3-(3,4-dimethoxyphenyl)propylidene]]ester, [2S-[1(R*),2R*[S*[S*[1(R*),2R*]]]]]-(9Cl)] the “amount needed for effective signaling, converted to dose” value (FKBP12(V36)) was 0.016 to 1.6 mg/kg, the “amount needed in vitro for effective signaling of cells” value (FKBP12(V36)) was 10 to 100 nM and the “amount needed for effective signaling, converted” value (FKBP12(V36); 1600 Da MW) was 16 to 160 µg/L. For the same molecule, the “mean Cmax” value ([1]; 0.01-1.0 mg/kg dose range, IV over 2 hours, plasma) was 0.01 to 1.275 µg/mL, the “AP1903 plasma levels versus dose” value ([1]; 0.01-1.0 mg/kg) was “directly proportional to dose” and the “plasma level as % of maximal concentration” value (from here on “plasma level as %”) ([1]; 0.5 hours post-dose) was “approximately 18%”. The “plasma level as %” value ([1]; 2 hours post-dose) was about 7%, the “plasma level as %” value ([1]; 10 hours post-dose) was about 1% and the well-tolerated doses ([1]; Phase I study of AP1903) was “up to 1 mg/kg”.

B1: ALD-518: humanized anti-IL-6 monoclonal antibody (antibody, chains of the INN, looked up, V domains shown)
VH: EVQLVESGGGLVQPGGSLRLSCAASGFSLSNYYVTWVRQAPGKGLEWVGIIYGSDETAYATSAIGRFTISRDNSKNTLYLQMNSLRAEDTAVYYCARDDSSDWDAKFNLWGQGTLVTVSS
VL: AIQMTQSPSSLSASVGDRVTITCQASQSINNELSWYQQKPGKAPKLLIYRASTLASGVPSRFSGSGSGTDFTLTISSLQPDDFATYYCQQGYSLRNIDNAFGGGTKVEIK
For B1, the “hematologic parameters and albumin” value (IL-6; larger study, cancer-related anemia, cachexia and fatigue, Schuster et al.) is given as “increase hemoglobin, hematocrit, mean corpuscular hemoglobin, and albumin”, the C-reactive protein levels (IL-6; [2]) is given as “decrease in C-reactive protein levels” and the “fatigue, hemoglobin and albumin” value (IL-6; [2]) is given as “reverse fatigue, increase hemoglobin and increase albumin”. The hand grip strength (IL-6; [2]) was “trend to increased hand grip strength”.
